From patent publication US12390465B2, “Coumarin derivative for therapy or prophylaxis of a cell proliferative disorder” (The Institute of Cancer Research: Royal Cancer Hospital, priority 2017, dated 2025)

Tests used:
Assay type in all cases: in vivo, human
[1] = system: KRAS mutant and NRAS mutant IgG lambda multiple myeloma; assay: Example 1: oral treatment of a multiple myeloma patient, 3 weeks on/1 week off; details: for FLCk: pre 325 mg/L, 4 mg twice weekly
Protocol: A potassium salt of compound (I) (the potassium salt being also referred to as the “IMP” in this example) was orally administered to a patient with KRAS mutant and NRAS mutant IgG lambda multiple myeloma at a dose of 4 mg twice weekly (Tuesday and Friday) in 4-week cycles consisting of 3 weeks of treatment followed by 1 week of rest (3 weeks on/1 week off). Dexamethasone was not used in combination with the IMP.
The patient started dosing on 29 Nov., 2016. […] initial and ongoing toxicity was intermittent Grade 1 diarrhoea that may be related to the IMP.
The patient had previously been treated with: • Autologous stem cell transplant • Proteasome inhibitor • Immunomodulatory drug • Cyclophosphamide+Dexamethasone+Thalidomide • Melphalan • Lenalidomide • Cyclophosphamide+Bortezomib • Dexamethasone • Spine T3-T12, 5 fractions (radiotherapy)

[2] = system: KRAS mutant non-small-cell lung cancer; assay: Example 2: oral treatment of a non-small-cell lung cancer patient with stepwise dose reduction; details: for best response, reduction in target lesions by RECIST 1.1: CT scan
Protocol: A potassium salt of compound (I) (the potassium salt being also referred to as the “IMP” in this example) was orally administered to a patient with KRAS mutant non-small-cell lung cancer.
The patient started treatment on 1 Sep., 2014. The IMP was first administered at a dose of 4 mg twice weekly in 4-week cycles consisting of 4 weeks of treatment (4 mg 4 wk on). In Cycle 9, due to Grade 3 maculopapular rash, the dosage was reduced to 3.2 mg twice weekly in 4-week cycles (3.2 mg 4 wk on). In Cycle 22, due to Grade 3 facial rash, the dosage was reduced again to a 3 weeks on/1 week off schedule with 3.2 mg twice weekly (3.2 mg 3 wk on/1 wk off).
The horizontal axis (X-axis) represents the treatment cycle number and the vertical axis (Y-axis) represents the rate of change of tumor size from baseline. The tumor size was measured by CT scan. The best responses of the dosing schedules 4 mg 4 wk on, 3.2 mg 4 wk on, and 3.2 mg 3 wk on/1 wk off were 58% reduction, 61% reduction, and 68% reduction in target lesions by RECIST 1.1, respectively. Treatment of the patient by the IMP is being continued as of 18 Apr., 2018 (at Cycle 48, equivalent to 3.6 years) without any Grade 2 or higher rash being observed.
The patient had previously been treated with: • Carboplatin/Pemetrexed • Pemetrexed • Docetaxel • Pleurodesis (October 2012) (surgery)

[3] = system: HRAS mutant apocrine adenocarcinoma of the scalp; assay: Example 3: oral treatment of an apocrine adenocarcinoma patient following the dosing guidance; details: for reduction in tumor size: CT scan
Protocol: A potassium salt of compound (I) (the potassium salt being also referred to as the “IMP” in this example) was orally administered to a patient with HRAS mutant apocrine adenocarcinoma of the scalp. Apocrine adenocarcinoma of the scalp is a cutaneous sweat gland carcinoma. The patient was diagnosed in 2014, and had radiotherapy and surgery twice before treatment with the IMP.
Treatment of the patient by the IMP was started on 8th Jan., 2018 at a dose of 4 mg twice weekly in 4-week cycles. In Cycle 1 Week 3, the patient had Grade 2 acneiform rash and Grade 2 diarrhoea and thus the dosage was reduced to a 3 weeks on/1 week off schedule with 4 mg twice weekly. The grade of acneiform rash was one (1) in Cycle 2 Day 1, […] in Cycle 2 Day 22, and two (2) in Cycle 3 Day 1. Thus, the dose at Cycle 3 Day 1 was not reduced to 3.2 mg and was determined as 4 mg.
Treatment of the patient by the IMP is ongoing as of 30th Apr., 2018 (Cycle 5 Day 1) without any Grade 2 or higher rash or diarrhoea being observed.

solid cancers = assay: Earlier dosing regimen (twice weekly, 4 mg per administration) in patients; details: some cases
Protocol: In regard to the usage and dosage of compound (I) or a salt thereof, a potassium salt of compound (I) is known to be administered to patients with solid cancers such as non-small-cell lung cancer, ovarian cancer, endometrial cancer, and colorectal cancer twice weekly at a dose of 4 mg per administration (see non patent document 1).

[4] = 4 mg twice weekly in 4-week cycles, Cycle 1 Week 3

CNS(=O)(=O)[N-]c1nccc(Cc2c(C)c3ccc(Oc4ncccn4)cc3oc2=O)c1F.[K+] [IMP]
rash related to the IMP (grade) ([1]; 4 mg twice weekly oral, no dexamethasone): 2 Grade | diarrhoea (toxicity grade) ([1]; 4 mg twice weekly oral, no dexamethasone, initial and ongoing, intermittent, may be related to the IMP): 1 Grade | response as per IMWG criteria ([1]; 4 mg twice weekly oral, ongoing): partial response | FLCk ([1]; after 1 cycle): 161 mg/L | FLCk ([1]; after 2 cycles): 264 mg/L | rash (grade) after the reductions ([2]; 3.2 mg twice weekly, 3 wk on/1 wk off): 1 Grade | facial rash (grade) ([2]; 3.2 mg twice weekly, 4 wk on, Cycle 22): 3 Grade | maculopapular rash (grade) ([2]; 4 mg twice weekly, 4 wk on, Cycle 9): 3 Grade | rash observed (grade) during continued treatment ([2]; as of Cycle 48 (3.6 years)): < 2 Grade | response by RECIST 1.1 ([2]; maintained at Cycle 40, 3.2 mg 3 wk on/1 wk off): partial response | best response, reduction in target lesions by RECIST 1.1 ([2]; schedule 3.2 mg 3 wk on/1 wk off): 68% | best response, reduction in target lesions by RECIST 1.1 ([2]; schedule 3.2 mg 4 wk on): 61% | best response, reduction in target lesions by RECIST 1.1 ([2]; schedule 4 mg 4 wk on): 58% | acneiform rash (grade) [3, 4]: 2 Grade | diarrhoea (grade) [3, 4]: 2 Grade | response by RECIST 1.1 (tumor size by CT scan) ([3]; 4 mg twice weekly, 3 weeks on/1 week off): partial response | acneiform rash (grade) ([3]; 4 mg twice weekly, 3 weeks on/1 week off, Cycle 2 Day 1): 1 Grade | acneiform rash (grade) ([3]; 4 mg twice weekly, 3 weeks on/1 week off, Cycle 2 Day 22): 3 Grade | acneiform rash (grade) ([3]; 4 mg twice weekly, 3 weeks on/1 week off, Cycle 3 Day 1): 2 Grade | reduction in tumor size ([3]; Cycle 2 Day 22): 54% | reduction in tumor size ([3]; Cycle 4 Day 15): 58% | diarrhoea observed (grade) during ongoing treatment ([3]; as of Cycle 5 Day 1): < 2 Grade | rash observed (grade) during ongoing treatment ([3]; as of Cycle 5 Day 1): < 2 Grade

CNS(=O)(=O)Nc1nccc(Cc2c(C)c3ccc(Oc4ncccn4)cc3oc2=O)c1F [compound (I)]
adverse event leading to unplanned dose interruption and/or dose reduction (solid cancers): worsening of skin rash
